The test system of experiment [1] is OVX mice. As to conditions: AMD3100-treated vs PBS-treated OVX mice; did not reach statistical significance; FIGS. 6 & 7.
Procedure: 12-week-old female C57BL/6 mice were purchased from Jackson Laboratory (Bar Harbor, ME). Mice were housed in an air-conditioned room with a 12 hour light/dark cycle at a temperature of 22±2° C. and humidity of 45-65%, and given free access to food and tap water. Mice underwent either sham surgery or ovariectomy (OVX) at 12 weeks of age and were sacrificed at 16 weeks of age. One week after surgery, sham-operated and OVX mice received an intraperitoneal injection with AMD3100 (Sigma-Aldrich #A5602, St. Louis, Mo., sigma Aldrich.com) (5 mg/kg/day) or PBS for 21 days. At the end of treatment, the mice were sacrificed, and blood samples were collected by cardiac puncture for the colony-forming unit (CFU) assay. Femora were removed, fixed with 4% paraformaldehyde in phosphate-buffered physiological saline solution (pH 7.4) for 16 hours, and then stored at 4° C. in 80% ethanol for measurement of bone density.
Bone marrow cells from the femurs and tibias were collected by flushing with 20 ml PBS passed through a 25-gauge needle. After centrifugation at 1,300 rpm for 5 minutes, the supernatant was removed and the cells were then washed by ammonium chloride lysis. […]
Experiment [2] concerns OVX mice. Particulars: AMD3100-treated vs PBS-treated OVX mice.
For experiment [3], the system named is BM-derived macrophages. As to conditions: RANKL 100 ng/ml, M-CSF 30 ng/ml, AMD3100 25 mg/ml for 3 days; FIG. 10.
Procedure: Total RNA was extracted from BM cultures treated with or without RANKL in the presence or absence of AMD3100 (25 g/ml) for 3 days. […] RNA samples were extracted from whole bone marrow (BM) cells of four individual animals per group and isolated from the cultured cells using the RNeasy Mini kit (Qiagen, Hilden, Germany), and the concentration was determined using a Nanodrop ND-1000 spectrophotometer. A total of 5 mg of each RNA was converted to cDNA using the sprint RT complete-oligo (dT) 18 (Clontech, MountainView, Calif., www.clontech.com) according to the manufacturer's guide. The cDNA was quantified using the QuantiTect SYBR Green PCR Kit (Qiagen). The following reaction components were added to each investigated transcript to the indicated end-concentration: forward primer (5 pM), reverse primer (5 pM), and QuantiTect SYBR Green PCR Master mix. The 10 μl master-mix was added to a 0.1 ml tube, and 5 μl volume, containing 100 ng reverse transcribed total RNA, was added as polymerase chain reaction (PCR) template. The tubes were closed, centrifuged, and placed into the Corbett research RG-6000 real-time PCR machine (Corbett LifeScience, Sydney, Australia). The following primers were used: Bone marrow cells were obtained from the femurs and tibias of seven-week-old mice. The bone marrow suspension was added to plates along with macrophage colony stimulating factor (M-CSF; 30 ng/ml). […]
Experiment [4] has as its system OVX mice. As to conditions: AMD3100-treated OVX mice compared to PBS-treated OVX mice, 21 days; FIG. 5.
Procedure: 12-week-old female C57BL/6 mice were purchased from Jackson Laboratory (Bar Harbor, ME). Mice were housed in an air-conditioned room with a 12 hour light/dark cycle at a temperature of 22±2° C. and humidity of 45-65%, and given free access to food and tap water. Mice underwent either sham surgery or ovariectomy (OVX) at 12 weeks of age and were sacrificed at 16 weeks of age. One week after surgery, sham-operated and OVX mice received an intraperitoneal injection with AMD3100 (Sigma-Aldrich #A5602, St. Louis, Mo., sigma Aldrich.com) (5 mg/kg/day) or PBS for 21 days. At the end of treatment, the mice were sacrificed, and blood samples were collected by cardiac puncture for the colony-forming unit (CFU) assay.
Single-cell suspensions of peripheral blood (PB) after ammonium chloride lysis were plated into 35 mm dishes (3×10^5 cells/plate) with MethoCult GF M3434 (StemCell Technologies). Hematopoietic colonies were counted and scored after incubation for 12-14 days at 37° C., 5% CO2, as instructed by the manufacturer.
In order to determine whether AMD3100 may mobilize HSPCs from bone marrow in OVX mice, AMD3100 or PBS was administered to OVX mice for 21 days.
In experiment [5] the test system is Osteocalcin, PTHR1, Osterix, Runx2. Particulars: bone marrow of OVX and control mice, real-time PCR; FIG. 4. (In general: Quantitative PCR measures a nucleic acid by following its amplification.)
In experiment [6] the test system is SDF-1. Particulars: AMD3100 5 mg/kg/day intraperitoneal for 21 days vs PBS.
Experiment [7] has as its system OVX mice.

For `c1cc(CN2CCCNCCNCCCNCC2)ccc1CN1CCCNCCNCCCNCC1` [AMD3100, 1,1′-[1,4-Phenylenebis(methylene)]bis[1,4,8,1]-tetraazacyclotetradecanel], the “percentage of Lin-Sca-1+c-Kit+ (LSK) cells in bone marrow” value in experiment [1] is recorded as “decrease”. For the same compound, the “bone density in micro-CT images of the distal femur” value in experiment [2] (FIG. 8) is “increased bone density”. Also, the “bone mineral density (BMD)” value in experiment [2] (FIG. 9) is on record as “increase”. The “osteoclast differentiation (expression of genes associated with osteoclast differentiation)” value in experiment [3] is on record as “did not affect osteoclast differentiation”. In experiment [4], the “number of CFU cells in blood” value is on record as “significant increase”. Also, in experiment [5], the “levels of osteoblast lineage-specific genes (Osteocalcin, PTHR1, Osterix, Runx2)” value was “no significant differences”. In addition, the “levels of functional SDF-1 in bone marrow” value in experiment [6] (bone marrow supernatant, FIG. 2) is “decreased”. In addition, the “levels of functional SDF-1 in plasma” value in experiment [6] (plasma, FIG. 3) is listed as “increased”. Moreover, the “osteoblast number/bone surface [N.Ob/BS (/mm)]” value in experiment [7] (H&E staining, AMD3100 treatment groups, FIG. 13) was “did not change significantly”. Besides, the “number and size of TRAP+ active osteoclasts in the trabecular region” value in experiment [7] (TRAP staining, AMD3100-treated OVX mice, FIG. 11) is “decrease”. Moreover, the “osteoclast number/bone surface [N.Oc/BS (/mm)]” value in experiment [7] (histomorphometry, AMD3100-treated vs PBS-treated OVX mice, FIG. 12) is “decrease”.

The record behind these values is patent US20160081980A1, “Composition Comprising AMD3100 For Preventing or Treating Bone Diseases” (KYUNGPOOK NATIONAL UNIVERSITY INDUSTRY-ACADEMIC COOPERATION …, priority 2013, published 2016).
